Data on one molecule can be found in patent EP2552195B1, “ANTIMICROBIAL OIL-IN-WATER EMULSION” (B. Braun Melsungen AG, priority 2010, dated 2011).

Type in all cases: cell-based
Experiment [1] concerns Enterococcus hirae (ATCC 10541). Put plainly: Inactivator test per prEN13727 (2008) and prEN13624 (2010). Particulars: n = 4. The text has this: (§1) Es wurden Öl in Wasser Emulsionen hergestellt, die unterschiedliche Mengen X des antimikrobiellen Wirkstoffs Polyhexamethylenbiguanidiniumhydrochlorid (PHMB) [erfindungsgemäß] und Chlorhexidin (CHX) [Vergleich] aufweisen. Die Öl in Wasser Emulsionen sind in Tabelle 7 wiedergegeben. Tabelle 7
(§2) Um die Wirksamkeit der antimikrobiellen Wirkstoffe in einem bestimmten Konzentrationsbereich in einer Öl in Wasser Emulsion zu testen wurde ein Inaktivatortest nach prEN13727 (2008) und prEN13624 (2010) gegenüber Enterococcus hirae (ATCC 10541), Escherichia coli (ATCC 11229), Pseudomonas aeruginosa (ATCC 15442) und Staphylococcus aureus (ATCC 6538) für n = 4 durchgeführt. Die Messergebnisse sind in Tabelle 8 wiedergegeben. Tabelle 8

In experiment [2] the test system is Escherichia coli (ATCC 11229). The experiment is described as above. Particulars: n = 4.
Text: as §1, §2

Experiment [3] deals with Pseudomonas aeruginosa (ATCC 15442). Described as above. Particulars: n = 4.
Text: as §1, §2

Experiment [4] concerns Staphylococcus aureus (ATCC 6538). The description is as above. Particulars: n = 4.
Text: as §1, §2

The subject of experiment [5] is Prüfmikroorganismen. In words: Inactivator test, overall statement for all four test organisms. Particulars: concentration range 0,02 - 0,05 Gew.-% in o/w emulsion.
Text: as §2

The mark [6] stands for this setting: 0,02% active in o/w emulsion (Tabelle 7).
[7] abbreviates: 0,03% active in o/w emulsion (Tabelle 7).
Setting [8] is: 0,04% active in o/w emulsion (Tabelle 7).
The mark [9] stands for this setting: 0,05% active in o/w emulsion (Tabelle 7).

Regarding `N=C(NCCCCCCNC(=N)NC(=N)Nc1ccc(Cl)cc1)NC(=N)Nc1ccc(Cl)cc1` [CHX, Chlorhexidin], the “Kolonien-bildende Einheiten E. hirae” value in experiment [1] (setting [6]) turned out to be 104 ± 4; in experiment [1] (setting [7]), 102 ± 5; in experiment [1] (setting [8]), 106 ± 3; in experiment [1] (setting [9]), 106 ± 3. Further, the “Kolonien-bildende Einheiten E. coli” value stood at 132 ± 1 in experiment [2] (setting [6]), 131 ± 5 in experiment [2] (setting [7]), 130 ± 9 in experiment [2] (setting [8]) and 130 ± 9 in experiment [2] (setting [9]). Moreover, the “Kolonien-bildende Einheiten P. aeruginosa” value in experiment [3] (setting [6]) is recorded as 316 ± 50; in experiment [3] (setting [7]), 315 ± 43; in experiment [3] (setting [8]), 355 ± 10; in experiment [3] (setting [9]) it was 339 ± 37. In addition, the “Kolonien-bildende Einheiten S. aureus” value in experiment [4] (setting [6]) was 149 ± 5; in experiment [4] (setting [7]) it was 156 ± 13; in experiment [4] (setting [8]), 160 ± 8; in experiment [4] (setting [9]), 159 ± 10. For the same molecule, in experiment [5], the “mikrobiozide Wirkung in der Öl in Wasser Emulsion” value was “inaktiviert vollständig”.
